{"source": "patent US20110201679A1", "about": "“Use of Tocotrienols for Elevating IKBKAP Gene Expression and Treating Neurodegenerative Diseases or Disorders” (priority 2004, published 2011)", "type_in_all_cases": "cell-based, human", "key": {"[1]": {"system": "IKAP transcript", "assay": "Real-time RT-PCR analysis of IKAP RNA in FD-derived and normal fibroblast cells", "settings": "for effect on cellular levels of IKAP transcripts: 48 h, 25 and 2.5 μg/ml", "procedure": "In order to identify agents that could modulate the level of the wild type IKAP transcript produced in FD-derived cells, either by increasing transcription or modulating splicing, FD-derived fibroblast cells (GM00850) were treated with a variety of biological agents. RNA was isolated from the treated cells and was subjected to real-time RT-PCR analysis using primers specific for the wild-type IKAP transcript. More specifically, FD-derived fibroblast cells, seeded in 96-well plates at a concentration of 4000 cells/well for at least one day prior to treatment, were treated in triplicate for approximately 48 h unless noted otherwise. After treatment, the cells were washed once with PBS and then lysed in 50 μl of Cell-to-cDNA lysis buffer (Ambion) at 75° C. for 12 min. After one freeze-thaw cycle, 4 μl of lysate was used in 20 μl RT-PCRs. The Quantitect SYBR Green RT-PCR Kit (Qiagen) was used for real-time RT-PCR analysis of the relative quantities of the exon 20-containing transcript (wild-type), the exon 20-lacking transcript (mutant), as well as an exon 34-35-containing transcript that is unaffected by the FD-causing mutation (total). An ABI PRISM 7000 Sequence Detection System (Applied Biosystems), programmed as follows, was used to perform the real-time RT-PCR and analysis: 50° C. for 30 min and 95° C. for 15 min for one cycle, followed by 40 cycles of 94° C. for 15 s, 57-60° C. for 30 s, and 72° C. for 30 s. To present relative amounts of PCR product obtained, results were expressed as changes in the threshold cycle (ΔCT) compared to untreated cells. The threshold cycle refers to the PCR cycle at which the fluorescence of the PCR is increased to a calculated level above background. A change of 1.0 in CT, assuming 100% PCR efficiency, would reflect a twofold change in the starting amount of the RNA template that was amplified.\nTo control for the amount of RNA present in the samples, RT-PCR amplification of ribosomal 18S RNA was performed on all cell lysates. […] For this analysis, TaqMan Ribosomal RNA Control Reagents were used with the TaqMan EZ RT-PCR Kit (Applied Biosystems) as per the manufacturer's protocol.\nTo characterize the kinetics of the δ-tocotrienol-mediated accumulation of the IKAP transcript, FD-derived (GM00850 and GM04663) and normal (GM02912) fibroblast cells were exposed to 12.5 μg/ml of δ-tocotrienol for periods up to 48 h and the amount of the IKAP-encoding transcripts was determined by real-time RT-PCR, as described above.\nTo evaluate the IKAP mRNA-inducing ability of other molecules in the vitamin E family that are related to […], GM00850, GM04663, and GM02912 cells were incubated in the absence or presence of 25 and 2.5 μg/ml of either α, β, γ, or δ tocopherols or tocotrienols.\nAs described above, α, β, γ or δ tocopherol alone had no impact on IKAP mRNA levels when FD-derived or normal fibroblasts were treated for 48 hr. To determine if α-tocopherol in combination with tocotrienols would have an impact on IKAP mRNA levels, FD-derived GM00850 and GM04663 fibroblasts were treated for 48 hr with either 25 or 12.5 μg/mL of a mixture of α, β, γ and δ tocotrienols alone or in combination with 50 μg/mL of α-tocopherol."}, "[2]": {"system": "IKBKAP gene transcription", "assay": "Nuclear run-on transcription assay in GM04663 cells", "settings": "48 h, 12.5 μg/ml, versus untreated cells", "procedure": "The δ-tocotrienol-mediated accumulation of the IKAP-encoding transcripts was either the result of an elevation in the level of gene transcription or the stabilization of this RNA. To distinguish between these possibilities, nuclear run-on transcription assays were performed on cells incubated in either the presence or absence of δ-tocotrienol. Isolation of nuclei and transcription in the presence of [α-^32P]UTP (Perkin Elmer Life Sciences) were performed essentially as described by B. Y. Rubin (J. Biol. Chem. 266: 24245-24248 (1991)). Briefly, confluent monolayers of GM04663 cells in 175 cm^2 flasks were incubated for 48 h in the presence or absence of 12.5 μg/ml δ-tocotrienol. The cells were then lysed by Dounce homogenization and the resultant nuclei were incubated with 250 μCi [α-^32P]UTP. The radiolabeled RNA was treated with DNase, purified with Trizol LS reagent (Invitrogen), and then hybridized to 5 μg of plasmid containing either a full-length cDNA encoding IKAP or a cDNA encoding GAPDH that was immobilized on Nytran Super-Charge nylon membrane (Schleicher & Schuell) using a spot-blot apparatus. The amount of radiolabeled RNA bound was detected by autoradiography and then quantitated by densitometric scanning of the X-ray film."}, "[3]": {"system": "full-length IKAP", "assay": "Western blot analysis of full-length IKAP in fibroblast cells", "settings": "12.5 μg/ml", "procedure": "Western blot analysis was performed on cellular extracts prepared from δ-tocotrienol-treated FD-derived (GM00850 and GM04663) and normal (GM02912) fibroblast cells, using a monoclonal antibody generated against a peptide corresponding to exons 23-28 of IKAP that only recognize the full-length IKAP. Basically, cells treated for 48 h with 12.5 μg/ml of δ-tocotrienol were washed twice with PBS and lysed in 0.5 M Tris-HCl, pH 6.8, containing 1.4% SDS. Western blot analysis was performed essentially as described by B. Y. Rubin (Proc. Natl. Acad. Sci. USA 82: 6637-6641 (1985)). Essentially, equal amounts of protein fractionated on a 7% NuPAGE Tris-Acetate Gel (Invitrogen) were blotted onto nitrocellulose (Bio-Rad) and probed overnight with a monoclonal anti-body (BD Biosciences) directed against the carboxyl end (exons 23-28) of IKAP. The blot was then washed and probed with a goat anti-mouse antibody conjugated to alkaline phosphatase (Promega), followed by detection with Western Blue Substrate solution (Promega)."}, "[4]": {"system": "IKAP transcript", "assay": "Real-time RT-PCR analysis of wild-type IKAP RNA in LA1-55n cells", "settings": "LA1-55n neuroblastoma cells, 48 h, varying concentrations", "procedure": "FIG. 7. Real-time RT-PCR analysis of wild-type IKAP RNA in LA1-55n cells. cDNA was prepared from LA1-55n cells incubated for 48 h in the absence or presence of varying concentrations of δ-tocotrienol. The relative amounts of IKAP RNA present in these cells were determined by real-time RT-PCR. The results presented represent mean values obtained in three experiments, each done in triplicate.\nThe response of the neuroblastoma-derived LA1-55n cell line, which has characteristics of sympathetic neurons (J. L. Biedler, et al., “Human Neuroblastoma Cell Differentiation, in: D. Raghavan, et al., Principles and Practice of Genitourinary Oncology, Lippincott-Raven, pp. 1053-1061, (1997); D. L. Lazarova, et al., “A Neuronal-Specific RNA-Binding Protein, is a Putative Regulator of N-myc pre-mRNA Processing/Stability in Malignant Human Neuroblasts”, Oncogene 18: 2703-2710 (1999)), to treatment with […] was examined."}, "[5]": {"settings": "GM00850, GM04663 and GM02912 cells"}}, "note": "Entries after “also recorded” stand apart in the source; their conditions may differ."}
{"compound": "Cc1c(C)c2c(c(C)c1O)CC[C@@](C)(CCC[C@H](C)CCC[C@H](C)CCCC(C)C)O2", "note": "[α-tocopherol, α-Tocopherol]", "values": [{"measurement": "effect on cellular levels of IKAP transcripts", "setting": "[1]; [5]", "value": "no impact; also recorded: no effect"}, {"measurement": "enhancement of tocotrienol-induced increase in IKAP mRNA", "setting": "[1]; GM00850 and GM04663, 48 hr, 50 μg/mL α-tocopherol with 25 or 12.5 μg/mL mixture of α, β, γ and δ tocotrienols, versus tocotrienol-only treated cells", "value": "≤ 40", "unit": "%"}, {"measurement": "effect on IKAP mRNA levels, alone", "setting": "[1]; GM00850 and GM04663 fibroblasts, 48 hr, 50 μg/mL α-tocopherol alone", "value": "no effect"}]}
{"compound": "CC(C)=CCC/C(C)=C/CC/C(C)=C/CC[C@]1(C)CCc2c(C)c(O)c(C)c(C)c2O1", "note": "[α-tocotrienol, α-Tocotrienol]", "values": [{"measurement": "effect on cellular levels of IKAP transcripts", "setting": "[1]; [5]", "value": "as much as sixfold"}]}
{"compound": "Cc1cc(O)c(C)c2c1O[C@](C)(CCC[C@H](C)CCC[C@H](C)CCCC(C)C)CC2", "note": "[β-tocopherol, β-Tocopherol]", "values": [{"measurement": "effect on cellular levels of IKAP transcripts", "setting": "[1]; [5]", "value": "no impact; also recorded: no effect"}]}
{"compound": "CC(C)=CCC/C(C)=C/CC/C(C)=C/CC[C@]1(C)CCc2c(C)c(O)cc(C)c2O1", "note": "[β-tocotrienol, β-Tocotrienol]", "values": [{"measurement": "effect on cellular levels of IKAP transcripts", "setting": "[1]; [5]", "value": "as much as sixfold"}]}
{"compound": "Cc1c(O)cc2c(c1C)O[C@](C)(CCC[C@H](C)CCC[C@H](C)CCCC(C)C)CC2", "note": "[γ-tocopherol, γ-Tocopherol]", "values": [{"measurement": "effect on cellular levels of IKAP transcripts", "setting": "[1]; [5]", "value": "no impact; also recorded: no effect"}]}
{"compound": "CC(C)=CCC/C(C)=C/CC/C(C)=C/CC[C@]1(C)CCc2cc(O)c(C)c(C)c2O1", "note": "[γ-tocotrienol, γ-Tocotrienol]", "values": [{"measurement": "effect on cellular levels of IKAP transcripts", "setting": "[1]; [5]", "value": "as much as sixfold"}]}
{"compound": "Cc1cc(O)cc2c1O[C@](C)(CCC[C@H](C)CCC[C@H](C)CCCC(C)C)CC2", "note": "[δ-tocopherol, δ-Tocopherol]", "values": [{"measurement": "effect on cellular levels of IKAP transcripts", "setting": "[1]; [5]", "value": "no impact; also recorded: no effect"}]}
{"compound": "CC(C)=CCC/C(C)=C/CC/C(C)=C/CC[C@]1(C)CCc2cc(O)cc(C)c2O1", "note": "[δ-tocotrienol, δ-Tocotrienol]", "values": [{"measurement": "increase in IKBKAP gene transcription", "setting": "[2]", "value": "approximately 3.5 fold"}, {"measurement": "increase in amount of full-length IKAP produced", "setting": "[3]; FD-derived fibroblasts GM00850 and GM04663, 48 h, on average", "value": "approximate two-fold increase"}, {"measurement": "IKAP level as percentage of the level present in untreated normal (GM02912) cells", "setting": "[3]; treated FD-derived cells GM00850 and GM04663, 48 h, untreated FD cells 26-30%", "value": "48-65%"}, {"measurement": "increase in IKAP transcript levels", "setting": "[4]", "value": "almost a twofold increase"}, {"measurement": "level of wild-type IKAP transcript", "setting": "[1]; FD-derived fibroblast GM00850, about 48 h, varying concentrations", "value": "concentration-dependent elevation"}, {"measurement": "change in threshold cycle (ΔCT) relative to untreated cells", "setting": "[1]; GM00850, 48 h, highest concentration tested", "value": 2.5}, {"measurement": "increase in levels of truncated and wild-type IKAP transcripts", "setting": "[1]; GM00850, 48 h, highest concentration tested, relative to untreated cells", "value": "as much as a sixfold increase"}, {"measurement": "levels of IKAP-encoding transcripts over time", "setting": "[1]; GM00850, GM04663 and GM02912 cells, 12.5 μg/ml, 24 h after start of treatment, versus untreated cells, accumulation continues through 48 h", "value": "significantly elevated levels"}, {"measurement": "effect on cellular levels of IKAP transcripts", "setting": "[1]; [5]", "value": "as much as sixfold"}]}
